This test has as its target T1, active p38 alpha enzyme (Upstate Biotechnology) (Homo sapiens, UniProt Q16539).
T1 construct: purchased Upstate Biotechnology
The test can be described thus: p38α biochemical assay (ATP turnover, luminescent detection, Cambrex PKlight). The following applies: p38α kinase; Table 1 Biological Activity. Summed up:
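Measures total ATP turnover by luminescence after human p38α phosphorylates full MapkapK2 protein. Final ATP is 1.4 uM, and incubation runs 2 hours at 30C. The buffer includes 100 mM MgCl2, 4 mM CaCl2 and 1 mg/ml BSA.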
T1 sequence (Q16539 whole entry): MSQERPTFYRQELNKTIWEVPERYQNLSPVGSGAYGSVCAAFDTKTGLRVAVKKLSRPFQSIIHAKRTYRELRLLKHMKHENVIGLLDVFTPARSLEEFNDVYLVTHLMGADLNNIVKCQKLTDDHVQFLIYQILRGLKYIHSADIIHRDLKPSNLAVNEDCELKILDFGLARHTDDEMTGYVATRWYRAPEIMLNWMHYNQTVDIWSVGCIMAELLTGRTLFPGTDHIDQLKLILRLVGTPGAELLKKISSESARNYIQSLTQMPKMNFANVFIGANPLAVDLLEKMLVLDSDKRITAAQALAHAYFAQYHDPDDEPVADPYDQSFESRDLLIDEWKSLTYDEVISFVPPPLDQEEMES
In turn, `CC(C)NC(=O)c1csc(-c2oc(CN[C@@H](C)c3ccccc3)nc2-c2ccc(F)cc2)n1` [Example 1097] gave an IC50 of over 1000 nM.
The same measure for `CC(C)NC(=O)c1csc(-c2oc(CN[C@H](C)c3ccccc3)nc2-c2ccc(F)cc2)n1` [Example 1098]: over 1000 nM.
`CC(C)NC(=O)c1csc(-c2oc(CNCCc3ccccc3)nc2-c2ccc(F)cc2)n1` [Example 1099] registered an IC50 of over 1000 nM.
In turn, `Cc1ccccc1CNCc1nc(-c2ccc(F)cc2)c(-c2nc(C(=O)NC(C)C)cs2)o1` [Example 1100] displayed an IC50 of over 1000 nM.
With `Cc1ccc(CNCc2nc(-c3ccc(F)cc3)c(-c3nc(C(=O)NC(C)C)cs3)o2)cc1` [Example 1101], the IC50 was over 1000 nM.
Take `Cc1cnc(CNCc2nc(-c3ccc(F)cc3)c(-c3nc(C(=O)NC(C)C)cs3)o2)cn1` [Example 1102]: the IC50 is over 1000 nM.
Under `CC(C)NC(=O)c1csc(-c2oc(CNCc3cccc(F)c3)nc2-c2ccc(F)cc2)n1` [Example 1103] stands over 1000 nM; under `CC(C)NC(=O)c1csc(-c2oc(CNCc3ccc(F)cc3)nc2-c2ccc(F)cc2)n1` [Example 1104], over 1000 nM; under `CC(C)NC(=O)c1csc(-c2oc(CNCc3ccccc3F)nc2-c2ccc(F)cc2)n1` [Example 1105], over 1000 nM.
In the case of `CC(C)NC(=O)c1csc(-c2oc(CNCCCn3ccnc3)nc2-c2ccc(F)cc2)n1` [Example 1106], the IC50 is over 1000 nM.
With `CC(C)NC(=O)c1csc(-c2oc(CNCCC3CCCN3C)nc2-c2ccc(F)cc2)n1` (stereo not shown) [Example 1107], the IC50 is over 1000 nM.
`CC(C)NC(=O)c1csc(-c2oc(CNCCN3CCCCC3)nc2-c2ccc(F)cc2)n1` [Example 1108]: the IC50 is over 1000 nM.
The compound `CC(C)CCCC(C)NCc1nc(-c2ccc(F)cc2)c(-c2nc(C(=O)NC(C)C)cs2)o1` (stereo not shown) [Example 1109] showed an IC50 of over 1000 nM.
Compound `CC(C)NC(=O)c1csc(-c2oc(CNCCN3CCOCC3)nc2-c2ccc(F)cc2)n1` [Example 1110] registered an IC50 of over 1000 nM.
As for `CCOC(=O)CC(C)NCc1nc(-c2ccc(F)cc2)c(-c2nc(C(=O)NC(C)C)cs2)o1` (stereo not shown) [Example 1111], the IC50 is over 1000 nM.
Take `CC(C)NC(=O)c1csc(-c2oc(CNC3CCc4ccccc43)nc2-c2ccc(F)cc2)n1` (stereo not shown) [Example 1112]: the IC50 was over 1000 nM.
The compound `CC1=CCC(CCNCc2nc(-c3ccc(F)cc3)c(-c3nc(C(=O)NC(C)C)cs3)o2)C=C1` (stereo not shown) [Example 1113] registered an IC50 of over 1000 nM.
Under `Cc1ccc(C)c(CNCc2nc(-c3ccc(F)cc3)c(-c3nc(C(=O)NC(C)C)cs3)o2)c1` [Example 1114] stands over 1000 nM.
With `Cc1ccc([C@H](C)NCc2nc(-c3ccc(F)cc3)c(-c3nc(C(=O)NC(C)C)cs3)o2)cc1` [Example 1115], the IC50 is over 1000 nM.
The same measure for `Cc1ccc([C@@H](C)NCc2nc(-c3ccc(F)cc3)c(-c3nc(C(=O)NC(C)C)cs3)o2)cc1` [Example 1116]: over 1000 nM; for `CC(C)NC(=O)c1csc(-c2oc(CNCC(C)c3ccccc3)nc2-c2ccc(F)cc2)n1` (stereo not shown) [Example 1117]: over 1000 nM.
The same measure for `CC(C)NC(=O)c1csc(-c2oc(CNCC(C)c3ccccc3)nc2-c2ccc(F)cc2)n1` (stereo not shown) [Example 1118]: over 1000 nM.
The compound `CC(C)NC(=O)c1csc(-c2oc(CNCCCc3ccccc3)nc2-c2ccc(F)cc2)n1` [Example 1119] registered an IC50 of over 1000 nM.
Under `Cc1ccc(CNCc2nc(-c3ccc(F)cc3)c(-c3nc(C(=O)NC(C)C)cs3)o2)cc1C` [Example 1120] stands over 1000 nM; under `CC(C)NC(=O)c1csc(-c2oc(CNC(C)Cc3ccncc3)nc2-c2ccc(F)cc2)n1` (stereo not shown) [Example 1121], over 1000 nM.
Take `CC(C)NC(=O)c1csc(-c2oc(CNCCc3ccc(O)cc3)nc2-c2ccc(F)cc2)n1` [Example 1122]: the IC50 was at most 1000 nM.
With `CC(C)NC(=O)c1csc(-c2oc(CNCCOc3ccccc3)nc2-c2ccc(F)cc2)n1` [Example 1123], the IC50 was over 1000 nM.
`COc1ccccc1CNCc1nc(-c2ccc(F)cc2)c(-c2nc(C(=O)NC(C)C)cs2)o1` [Example 1124] returned an IC50 of over 1000 nM.

The record behind these values is patent US20060252807A1, “Novel ortho-terphenyl inhibitors of p38 kinase and methods of treating inflammatory disorders” (Kalypsys, Inc., priority 2005, published 2006).
